Data published in PMC7044277 (Nature Communications, 2020).
Several values for one entry are separate records, joined by “and”; a condition that tells them apart may be missing. Equal values may be shown once.

What was measured:
Format in all cases: cell-based
Set-up in all cases: GPCRome screening signal at PTGIR / GPCRome screening signal at PTH1R / GPCRome screening signal at PTH2R / GPCRome screening signal at QRFP / GPCRome screening signal at RXFP2 / GPCRome screening signal at RXFP3 / GPCRome screening signal at RXFP4 / GPCRome screening signal at S1PR2 / GPCRome screening signal at S1PR3 / GPCRome screening signal at S1PR4 / GPCRome screening signal at S1PR5 / GPCRome screening signal at SCTR / GPCRome screening signal at SSTR2 / GPCRome screening signal at SSSTR / GPCRome screening signal at SSTR4 / GPCRome screening signal at SSTR5 / GPCRome screening signal at SUCNR1 / GPCRome screening signal at TA1 / GPCRome screening signal at TAAR2 / GPCRome screening signal at TAAR5 / GPCRome screening signal at TAAR6 / GPCRome screening signal at TAAR8 / GPCRome screening signal at TACR1 / GPCRome screening signal at TACR2 / GPCRome screening signal at TACR3 / GPCRome screening signal at TBXA2R / GPCRome screening signal at TSHR / GPCRome screening signal at UTS2R / GPCRome screening signal at VIPR2 / GPCRome screening signal at GPR68 no V2 Tail / GPCRome screening signal at GRM2 / GPCRome screening signal at GRM3: reference not given here
320 non-olfactory GPCRs [1] = biological target: T1, 320 non-olfactory GPCRs (Homo sapiens, UniProt P49190); details: receptor PTH2R
T1 construct: expressed in transfected cells; host or cells: HTLA cells
T1 sequence (P49190 25-550): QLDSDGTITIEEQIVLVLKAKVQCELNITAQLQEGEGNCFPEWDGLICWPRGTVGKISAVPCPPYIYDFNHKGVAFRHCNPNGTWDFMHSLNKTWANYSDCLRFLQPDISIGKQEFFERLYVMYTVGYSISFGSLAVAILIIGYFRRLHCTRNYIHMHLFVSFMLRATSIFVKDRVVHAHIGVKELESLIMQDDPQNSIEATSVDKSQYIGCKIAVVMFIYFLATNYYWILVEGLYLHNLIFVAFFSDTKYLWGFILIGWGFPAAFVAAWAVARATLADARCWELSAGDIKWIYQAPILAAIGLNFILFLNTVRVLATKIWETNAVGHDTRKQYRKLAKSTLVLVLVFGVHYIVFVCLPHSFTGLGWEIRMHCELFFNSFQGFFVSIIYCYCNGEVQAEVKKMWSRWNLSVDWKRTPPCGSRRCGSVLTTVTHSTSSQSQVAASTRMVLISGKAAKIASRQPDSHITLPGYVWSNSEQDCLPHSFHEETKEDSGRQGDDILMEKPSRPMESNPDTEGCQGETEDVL

320 non-olfactory GPCRs [2] = biological target: 320 non-olfactory GPCRs (Homo sapiens, UniProt P47872); details: receptor SCTR
Sequence of 320 non-olfactory GPCRs (Homo sapiens, UniProt P47872) (P47872 23-440): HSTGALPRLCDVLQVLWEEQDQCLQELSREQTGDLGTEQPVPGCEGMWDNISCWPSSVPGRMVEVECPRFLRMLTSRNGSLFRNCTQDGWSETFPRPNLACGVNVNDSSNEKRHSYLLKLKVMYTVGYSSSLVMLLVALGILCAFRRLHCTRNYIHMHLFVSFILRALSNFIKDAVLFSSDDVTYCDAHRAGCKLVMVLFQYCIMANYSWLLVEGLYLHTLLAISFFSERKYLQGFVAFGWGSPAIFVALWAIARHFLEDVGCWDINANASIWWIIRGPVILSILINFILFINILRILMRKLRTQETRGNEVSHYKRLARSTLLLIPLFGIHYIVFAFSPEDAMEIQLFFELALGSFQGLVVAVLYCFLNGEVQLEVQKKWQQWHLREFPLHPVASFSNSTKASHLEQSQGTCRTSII

320 non-olfactory GPCRs [3] = biological target: T2, 320 non-olfactory GPCRs (Homo sapiens, UniProt Q9BXA5); details: receptor SUCNR1
T2 construct: expressed in transfected cells; host or cells: HTLA cells
T2 sequence (Q9BXA5 whole entry): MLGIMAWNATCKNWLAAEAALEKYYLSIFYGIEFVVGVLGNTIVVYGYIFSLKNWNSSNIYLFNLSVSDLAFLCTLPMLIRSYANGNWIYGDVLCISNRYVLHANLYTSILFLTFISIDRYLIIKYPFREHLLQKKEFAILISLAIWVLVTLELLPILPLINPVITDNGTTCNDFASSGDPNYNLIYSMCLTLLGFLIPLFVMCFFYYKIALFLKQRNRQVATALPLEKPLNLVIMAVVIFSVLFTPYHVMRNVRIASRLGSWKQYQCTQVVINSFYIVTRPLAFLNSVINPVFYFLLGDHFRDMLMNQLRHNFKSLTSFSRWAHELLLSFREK

320 non-olfactory GPCRs [4] = biological target: T3, 320 non-olfactory GPCRs (Homo sapiens, UniProt Q96RI9); details: receptor TAAR9
T3 construct: expressed in transfected cells; host or cells: HTLA cells
T3 sequence (Q96RI9 whole entry): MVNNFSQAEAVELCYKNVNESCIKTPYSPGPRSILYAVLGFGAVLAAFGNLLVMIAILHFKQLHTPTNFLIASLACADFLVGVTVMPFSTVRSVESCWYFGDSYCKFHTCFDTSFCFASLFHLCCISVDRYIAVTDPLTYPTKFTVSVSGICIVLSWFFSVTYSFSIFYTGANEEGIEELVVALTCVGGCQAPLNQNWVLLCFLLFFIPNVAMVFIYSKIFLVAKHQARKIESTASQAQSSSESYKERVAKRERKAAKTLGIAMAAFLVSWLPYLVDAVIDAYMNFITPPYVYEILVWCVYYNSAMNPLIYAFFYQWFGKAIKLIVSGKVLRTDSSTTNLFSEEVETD

[5] = Fig_5f, single replicate values
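Throughout, for GPCRome agonism screen response: fold over basal response of each receptor without drug.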

GPCRome screening signal at PTH2R (320 non-olfactory GPCRs [1]; [5]) | GPCRome screening signal at SCTR (320 non-olfactory GPCRs [2]; [5]) | GPCRome screening signal at SUCNR1 (320 non-olfactory GPCRs [3]; [5]) | GPCRome screening signal at TAAR9 (320 non-olfactory GPCRs [4]; [5]) | Structure (SMILES) | GPCRome agonism screen response (320 non-olfactory GPCRs [1]; replicate values, Fig_4g) | GPCRome agonism screen response (320 non-olfactory GPCRs [2]; replicate values, Fig_4g) | GPCRome agonism screen response (320 non-olfactory GPCRs [3]; replicate values, Fig_4g) | GPCRome agonism screen response (320 non-olfactory GPCRs [4]; replicate values, Fig_4g)
0.8447 and 0.9374 and 0.7725 and 1.472 | 1.0412 and 0.8528 and 0.88 and 1.015 | 2.588 and 2.79 and 1.592 and 0.9771 | 1.0253 and 1.396 and 1.2735 and 0.8423 | CCOc1ccccc1CCC(C)NCC1(O)CCCCC1.Cl (racemic) [Fig_5f] | – | – | – | –
– | – | – | – | CCOc1cccc2cc(C(C)NCC3(O)CCCCC3)oc12 (centres unmarked) [O4LE6] | 1.171 and 0.1179 and 1.638 and 1.06 | 0.9841 and 0.1649 and 1.315 and 1.208 | 2.7145 and 1.744 and 1.03 and 1.189 | 0.8369 and 1.036 and 0.7156 and 1.104
